# Columns and labels:
# Assay type in all cases: cell-based, human
# [1] = system: BT-549; assay: NCI60 antitumor screening; conditions: 10 μM one-dose
# [2] = system: M14; assay: NCI60 antitumor screening; conditions: 10 μM one-dose
# [3] = system: OVCAR-5; assay: NCI60 antitumor screening; conditions: 10 μM one-dose
# [4] = system: KM12; assay: NCI60 antitumor screening; conditions: 10 μM one-dose
# [5] = system: NCI/ADR-RES; assay: NCI60 antitumor screening; conditions: 10 μM one-dose
# [6] = system: SF-295; assay: NCI60 antitumor screening; conditions: 10 μM one-dose
# [7] = system: DU-145; assay: NCI60 antitumor screening; conditions: 10 μM one-dose
# [8] = system: CAKI-1; assay: NCI60 antitumor screening; conditions: 10 μM one-dose
# [9] = system: MDA-MB-231/ATCC; assay: NCI60 antitumor screening; conditions: 10 μM one-dose
# [10] = system: PC-3; assay: NCI60 antitumor screening; conditions: 10 μM one-dose
# [11] = system: HT29; assay: NCI60 antitumor screening; conditions: 10 μM one-dose
# [12] = system: SF-539; assay: NCI60 antitumor screening; conditions: 10 μM one-dose
# [13] = system: OVCAR-8; assay: NCI60 antitumor screening; conditions: 10 μM one-dose
# [14] = system: SW-620; assay: NCI60 antitumor screening; conditions: 10 μM one-dose
# [15] = system: SK-MEL-28; assay: NCI60 antitumor screening; conditions: 10 μM one-dose
# [16] = system: T-47D; assay: NCI60 antitumor screening; conditions: 10 μM one-dose
# [17] = system: A498; assay: NCI60 antitumor screening; conditions: 10 μM one-dose
# [18] = system: 786–0; assay: NCI60 antitumor screening; conditions: 10 μM one-dose
# [19] = system: HOP-62; assay: NCI60 antitumor screening; conditions: 10 μM one-dose
# [20] = system: LOX IMVI; assay: NCI60 antitumor screening; conditions: 10 μM one-dose
# [21] = system: MDA-MB-435; assay: NCI60 antitumor screening; conditions: 10 μM one-dose
# [22] = system: NCI-H460; assay: NCI60 antitumor screening; conditions: 10 μM one-dose
# [23] = system: RPMI-8226; assay: NCI60 antitumor screening; conditions: 10 μM one-dose
# [24] = system: MALME-3M; assay: NCI60 antitumor screening; conditions: 10 μM one-dose
# [25] = system: SK-MEL-5; assay: NCI60 antitumor screening; conditions: 10 μM one-dose
# [26] = system: NCI-H522; assay: NCI60 antitumor screening; conditions: 10 μM one-dose
# [27] = system: U251; assay: NCI60 antitumor screening; conditions: 10 μM one-dose
# [28] = system: COLO 205; assay: NCI60 antitumor screening; conditions: 10 μM one-dose
# [29] = system: SNB-75; assay: NCI60 antitumor screening; conditions: 10 μM one-dose
# [30] = system: UACC-257; assay: NCI60 antitumor screening; conditions: 10 μM one-dose
# [31] = system: SK-MEL-2; assay: NCI60 antitumor screening; conditions: 10 μM one-dose
# [32] = system: NCI-H23; assay: NCI60 antitumor screening; conditions: 10 μM one-dose
# [33] = system: SNB-19; assay: NCI60 antitumor screening; conditions: 10 μM one-dose
# [34] = system: HCT-15; assay: NCI60 antitumor screening; conditions: 10 μM one-dose
# [35] = system: A549/ATCC; assay: NCI60 antitumor screening; conditions: 10 μM one-dose
# [36] = system: OVCAR-3; assay: NCI60 antitumor screening; conditions: 10 μM one-dose
# [37] = system: UO-31; assay: NCI60 antitumor screening; conditions: 10 μM one-dose
# [38] = system: ACHN; assay: NCI60 antitumor screening; conditions: 10 μM one-dose
# [39] = system: K-562; assay: NCI60 antitumor screening; conditions: 10 μM one-dose
# [40] = system: HCT-116; assay: NCI60 antitumor screening; conditions: 10 μM one-dose
# [41] = system: HCC-2998; assay: NCI60 antitumor screening; conditions: 10 μM one-dose
# [42] = system: UACC-62; assay: NCI60 antitumor screening; conditions: 10 μM one-dose
# [43] = system: HOP-92; assay: NCI60 antitumor screening; conditions: 10 μM one-dose
# [44] = system: MDA-MB-468; assay: NCI60 antitumor screening; conditions: 10 μM one-dose
# [45] = system: MOLT-4; assay: NCI60 antitumor screening; conditions: 10 μM one-dose
# [46] = system: SR; assay: NCI60 antitumor screening; conditions: 10 μM one-dose
# [47] = system: NCI60 cell lines panel; assay: NCI60 antitumor screening, full panel; conditions: 10 μM one-dose, mean over NCI60
# Method: The National Cancer Institute (NCI), Bethesda, Maryland, United States, selected all of the novel synthesized compounds (2b–d, 3a–d and 4a–p) for in vitro antitumor screening at a single concentration of 10 μM toward the NCI60 cell lines panel covering leukaemia, non-small cell lungs, colon, central nervous system (CNS), melanoma, ovarian, renal, prostate, and breast cancer cells.[32–35] The data were reported as a mean graph of the percent growth of the treated cell lines and expressed as percentage growth inhibition (GI%) in Table 1 and ESI 1.
# (2) The molar concentration of the compound responsible for total growth inhibition, also known as total growth inhibition (TGI).
# Regarding subpanel selectivity toward certain cancer type, the method of determining a compound's selectivity index is to divide the full panel MG-MID (μM) value by each single subpanel. Values above six indicate high selectivity against the subpanel; moderate selectivity is denoted by values between three and six. Conversely, compounds are termed nonselective if their selectivity is less than three.[30,37]
# [48] = system: HL-60(TB); assay: NCI60 antitumor screening; conditions: 10 μM one-dose
# [49] = system: RXF 393; assay: NCI60 antitumor screening; conditions: 10 μM one-dose
# [50] = system: MCF7; assay: NCI60 antitumor screening; conditions: 10 μM one-dose
# [51] = system: CCRF-CEM; assay: NCI60 antitumor screening; conditions: 10 μM one-dose
# [52] = system: EKVX; assay: NCI60 antitumor screening; conditions: 10 μM one-dose
# [53] = system: OVCAR-4; assay: NCI60 antitumor screening; conditions: 10 μM one-dose
# [54] = system: SF-268; assay: NCI60 antitumor screening; conditions: 10 μM one-dose
# [55] = system: NCI-H226; assay: NCI60 antitumor screening; conditions: 10 μM one-dose
# [56] = system: TK-10; assay: NCI60 antitumor screening; conditions: 10 μM one-dose
# [57] = system: IGROV1; assay: NCI60 antitumor screening; conditions: 10 μM one-dose
# [58] = system: HS 578T; assay: NCI60 antitumor screening; conditions: 10 μM one-dose
# [59] = system: SK-OV-3; assay: NCI60 antitumor screening; conditions: 10 μM one-dose
# [60] = system: SN12C; assay: NCI60 antitumor screening; conditions: 10 μM one-dose
# [61] = system: NCI-H322M; assay: NCI60 antitumor screening; conditions: 10 μM one-dose
compound,measurement,setting,value
"N#Cc1c(-c2ccc(F)cc2)nc(SCc2ccc(F)cc2)[nH]c1=O [2b, 2-((4-Fluorobenzyl)thio)-4-(4-fluorophenyl)-6-oxo-1,6-dihydropyrimidine-5-carbonitrile]",GI%,[1],— (GI% < 10)
same,GI%,[2],— (GI% < 10)
same,GI%,[3],— (GI% < 10)
same,GI%,[4],— (GI% < 10)
same,GI%,[5],37.17%
same,GI%,[6],25.73%
same,GI%,[7],— (GI% < 10)
same,GI%,[8],24.10%
same,GI%,[9],39.26%
same,GI%,[10],— (GI% < 10)
same,GI%,[11],— (GI% < 10)
same,GI%,[12],45.33%
same,GI%,[12]; Table 1,— (GI value > 70%)
same,GI%,[13],48.04%
same,GI%,[14],— (GI% < 10)
same,GI%,[15],— (GI% < 10)
same,GI%,[16],25.99%
same,GI%,[17],— (GI% < 10)
same,GI%,[18]; Table 1,84.82%
same,GI%,[19],16.84%
same,GI%,[19]; Table 1,— (GI value > 70%)
same,GI%,[20],10.55%
same,GI%,[21],— (GI% < 10)
same,GI%,[22],13.27%
same,GI%,[23],— (GI% < 10)
same,GI%,[24],— (GI% < 10)
same,GI%,[25],— (GI% < 10)
same,GI%,[26],25.94%
same,GI%,[27],33.40%
same,GI%,[28],— (GI% < 10)
same,GI%,[29],23.60%
same,GI%,[29]; Table 1,— (GI value > 70%)
same,GI%,[30],— (GI% < 10)
same,GI%,[31],— (GI% < 10)
same,GI%,[32],12.73%
same,GI%,[33],18.35%
same,GI%,[34],— (GI% < 10)
same,GI%,[35],15.77%
same,GI%,[36],— (GI% < 10)
same,GI%,[37],26.71%
same,GI%,[38],26.83%
same,GI%,[39],— (GI% < 10)
same,GI%,[39]; Table 1,— ^b (GI value > 70%)
same,GI%,[40],33.39%
same,GI%,[41],— (GI% < 10)
same,GI%,[42],11.33%
same,GI%,[43],19.25%
same,GI%,[44],14.26%
same,GI%,[45],— (GI% < 10)
same,GI%,[46]; Table 1,— (GI value > 70%)
same,Mean GI%,[47],16.01%
same,GI%,[48],20.88%
same,GI%,[49],28.91%
same,GI%,[49]; Table 1,— (GI value > 70%)
same,GI%,[50],— (GI% < 10)
same,GI%,[51],— (GI% < 10)
same,GI%,[52],— (GI% < 10)
same,GI%,[53]; Table 1,73.14%
same,GI%,[54],24.67%
same,GI%,[55],24.21%
same,GI%,[55]; Table 1,— (GI value > 70%)
same,GI%,[56],17.90%
same,GI%,[57],— (GI% < 10)
same,GI%,[58],24.34%
same,GI%,[58]; Table 1,— (GI value > 70%)
same,GI%,[59],26.25%
same,GI%,[60],17.08%
"N#Cc1c(Cl)nc(SCc2ccc([N+](=O)[O-])cc2)nc1-c1ccc(F)cc1 [3c, 4-Chloro-6-(4-fluorophenyl)-2-((4-nitrobenzyl)thio) pyrimidine-5-carbonitrile]",GI%,[1],43.62%
same,GI%,[2],12.41%
same,GI%,[3],— (GI% < 10)
same,GI%,[4],27.77%
same,GI%,[5],27.59%
same,GI%,[6],29.81%
same,GI%,[7],24.93%
same,GI%,[8],32.89%
same,GI%,[9],— (GI% < 10)
same,GI%,[10],57.37%
same,GI%,[11],61.63%
same,GI%,[12],28.21%
same,GI%,[13],16.16%
same,GI%,[14],37.21%
same,GI%,[15],— (GI% < 10)
same,GI%,[16],68.67%
same,GI%,[17],— (GI% < 10)
same,GI%,[18],21.29%
same,GI%,[19],— (GI% < 10)
same,GI%,[20],14.22%
same,GI%,[21],— (GI% < 10)
same,GI%,[22],13.48%
same,GI%,[23],41.51%
same,GI%,[24],— (GI% < 10)
same,GI%,[25],22.36%
same,GI%,[26],37.48%
same,GI%,[27],31.17%
same,GI%,[28],22.66%
same,GI%,[29],— (GI% < 10)
same,GI%,[30],24.66%
same,GI%,[61],13.28%
same,GI%,[31],— (GI% < 10)
same,GI%,[32],12.20%
same,GI%,[33],10.67%
same,GI%,[34],45.64%
same,GI%,[35],33.50%
same,GI%,[36],13.71%
same,GI%,[37],32.10%
same,GI%,[38],14.60%
same,GI%,[39],44.30%
same,GI%,[40],40.70%
same,GI%,[41],12.17%
same,GI%,[42],22.80%
same,GI%,[43],45.40%
same,GI%,[44],19.68%
same,GI%,[45],38.07%
same,GI%,[46],— (GI% < 10)
same,Mean GI%,[47],23.91%
same,GI%,[48],57.98%
same,GI%,[49],29.76%
same,GI%,[50],27.06%
same,GI%,[51],32.30%
same,GI%,[52],20.38%
same,GI%,[53],18.42%
same,GI%,[54],18.20%
same,GI%,[55],46.54%
same,GI%,[56],— (GI% < 10)
same,GI%,[57],— (GI% < 10)
same,GI%,[58],13.31%
same,GI%,[59],11.73%
same,GI%,[60],29.81%
